{"source": "patent US5217976A", "about": "“1,6-naphthyridone derivatives having angiotensin II antagonist activity” (Imperial Chemical Industries PLC, priority 1991, dated 1993)", "key": {"[1]": {"target": "T1, angiotensin II (AII) receptors, cell surface membrane fraction of guinea pig adrenal gland (Cavia porcellus, UniProt Q9WV26)", "T1 construct": "from tissue; host or cells: guinea pig adrenal gland, cell surface membrane fraction", "T1 sequence (Q9WV26 1-359)": "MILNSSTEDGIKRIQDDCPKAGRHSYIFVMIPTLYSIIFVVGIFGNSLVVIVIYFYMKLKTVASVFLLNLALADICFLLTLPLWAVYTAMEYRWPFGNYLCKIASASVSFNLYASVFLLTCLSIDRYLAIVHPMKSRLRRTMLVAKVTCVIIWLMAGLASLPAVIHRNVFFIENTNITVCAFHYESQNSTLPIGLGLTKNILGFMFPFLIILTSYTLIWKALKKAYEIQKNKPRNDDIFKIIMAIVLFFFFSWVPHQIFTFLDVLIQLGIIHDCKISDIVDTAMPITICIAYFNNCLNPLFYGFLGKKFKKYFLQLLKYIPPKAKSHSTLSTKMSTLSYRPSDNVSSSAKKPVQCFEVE", "assay": "Test A: displacement of radiolabelled AII binding to adrenal membrane fraction (in vitro)", "conditions": "guinea pig adrenal membranes, read-out: IC50 (concentration for 50% displacement of radiolabelled AII binding)", "description": "Test A: This in vitro procedure involves the incubation of the test compound initially at a concentration of 100 micromolar (or less) in a buffered mixture containing fixed concentrations of radiolabelled AII and a cell surface membrane fraction prepared from a suitable angiotensin target tissue. In this test, the source of cell surface membranes is the guinea pig adrenal gland which is well known to responsd to AII. Interaction of the radiolabelled AII with its receptors (assessed as radiolabel bound to the particulate membrane fraction following removal of unbound radiolabel by a rapid filtration procedure such as is standard in such studies) is antagonized by compounds which also bind to the membrane receptor sites and the degree of antagonism (observed in the test as displacement of membrane-bound radioactivity) is determined readily by comparing the receptor-bound radioactivity in the presence of the test compound at the specified test concentration with a control value determined in the absence of the test compound. Using this procedure compounds showing at least 50% displacement of radiolabelled AII binding at a concentration of 10^-4 M are retested at lower concentrations to determine their potency. […]"}, "[2]": {"test_system": "angiotensin II-induced pressor responses", "assay": "Test C: antagonism of angiotensin II-induced pressor responses in anaesthetised or conscious rats (in vivo)", "conditions": "iv, rat, i.v. administration", "description": "Test C: This in vivo test involves using terminally-anaesthetised or conscious rats in which an arterial catheter has been implanted under anaesthesia for the measurement of changes in blood pressure. The AII antagonistic effects of the test compound following oral or parenteral administration, are assessed against angiotensin II-induced pressor responses. To ensure that the effect is specific, the effect of the test compound on vasopressin-induced pressor responses may also be determined in the same preparation."}}, "data": [{"smiles": "Cc1cc2c(ccc(=O)n2Cc2ccc(-c3ccccc3-c3nnn[nH]3)cc2)c(C)n1.Cl", "note": "[Example I, 5,7-dimethyl-1[(2'-(1H-tetrazol-5-yl)biphenyl-4-yl)methyl]-1,6-naphthyridin-2(1H)-one hydrochloride]", "values": [{"measurement": "IC50", "setting": "[1]", "value": 8.84, "unit": "nM"}, {"measurement": "ED50", "setting": "[2]", "value": 0.048, "unit": "mg/kg"}]}]}
